BigSolDB 2.1

O=P1(c2cc(O)ccc2O)Oc2ccccc2-c2ccccc21 (configuration not stated)
Conditions	solubility (mole fraction)
in 2-ethoxyethanol, 293.15 K	0.000896
in 2-ethoxyethanol, 298.15 K	0.0012
in 2-ethoxyethanol, 302.98 K	0.00157
in 2-ethoxyethanol, 308 K	0.00207
in 2-ethoxyethanol, 313 K	0.00248
in 2-ethoxyethanol, 317.8 K	0.00347
in 2-ethoxyethanol, 322.7 K	0.00439
in 2-ethoxyethanol, 327.65 K	0.00556
in 2-ethoxyethanol, 332.65 K	0.00702
in 2-ethoxyethanol, 337.6 K	0.00896
in 2-ethoxyethanol, 342.58 K	0.0109
in 2-ethoxyethanol, 347.4 K	0.0134
in 2-ethoxyethanol, 352.83 K	0.0168
in 2-ethoxyethanol, 357.7 K	0.0207
in 2-ethoxyethanol, 362.67 K	0.0249
in 2-ethoxyethanol, 367.65 K	0.0301
in acetone, 292.15 K	0.00153
in acetone, 297.15 K	0.00182
in acetone, 302.15 K	0.00226
in acetone, 307.85 K	0.00304
in acetone, 312.9 K	0.0037
in acetone, 317.65 K	0.00427
in acetone, 322.6 K	0.00551
in ethanol, 293.15 K	0.00205
in ethanol, 298.1 K	0.00224
in ethanol, 303.05 K	0.00241
in ethanol, 307.95 K	0.0027
in ethanol, 312.95 K	0.00282
in ethanol, 317.8 K	0.00309
in ethanol, 322.8 K	0.00332
in ethanol, 327.85 K	0.00352
in methanol, 293.15 K	0.00107
in methanol, 298 K	0.00128
in methanol, 302.9 K	0.0015
in methanol, 307.85 K	0.00182
in methanol, 312.84 K	0.00227
in methanol, 317.6 K	0.0026
in methanol, 322.63 K	0.00292
in water, 303 K	0.000139
in water, 307.95 K	0.000143
in water, 312.85 K	0.000151
in water, 317.6 K	0.000155
in water, 322.45 K	0.000165
in water, 327.65 K	0.000168
in water, 332.5 K	0.000175
in water, 337.55 K	0.000184
in water, 342.35 K	0.000189
